Measurements published in patent publication US12673052B2, “Combinations for the treatment of cancer” (Exelixis, Inc., priority 2020, dated 2026).
Like-named read-outs stand apart in the source and are kept apart here.

Legend:
[1] = Permeability in Caco-2 cells; format: in vitro ADME; details: human, highly permeable, read-out: apparent permeability coefficient (Papp)
[2] = GLP safety pharmacology: neurobehavioral and respiratory; format: in vivo, rats; details: single oral doses as high as 60 mg/kg; within 24 hours postdose
Description: (§1) The nonclinical toxicity of Compound 1 was characterized in dose range-finding 7-day and definitive 28-day repeat-dose studies in rats and dogs, and in in vitro bacterial and mammalian genotoxicity bioassays. Compound 1 was also evaluated in definitive neurobehavioral, respiratory and cardiovascular safety pharmacology studies.

[3] = Hepatocyte stability assay; format: in vitro ADME, mouse; details: hepatocytes
Description: (§2) In the liver microsomal stability assay, CLint was 0.601 mL/min/g liver in mouse, 0.563 mL/min/g liver in rat, 0.315 mL/min/g liver in dog, 0.734 mL/min/g liver in monkey, and 0.639 mL/min/g liver in human. In the hepatocyte stability assay, Compound 1 CLint was 0.373 mL/min/g liver in mouse, 0.285 mL/min/g liver in rat, 1.08 mL/min/g liver in dog, 0.533 mL/min/g liver in monkey, and 0.317 mL/min/g liver in human.

[4] = GLP safety pharmacology: cardiovascular, telemeterized dogs; format: in vivo
Description: as §1

[5] = Tablet versus PIB formulation, single oral 20 mg dose, parallel design; format: in vivo, dogs; details: for half-life: po, read-out: t1/2, z (mean) (converted)
Description: In a parallel design study with a total of 24 dogs (1:1 treatment allocation ratio), Group 1 received Compound 1 as a 20-mg oral tablet and Group 2 received a 20-mg reconstituted oral suspension of the PIB formulation. For each dose group, blood samples were collected from each animal at pre-dose and up to 24 hours post-dose for Compound 1 plasma concentration measurements.

[6] = Liver microsomal stability assay; format: in vitro ADME, human; details: liver microsomes
Description: as §2

[7] = Hepatocyte stability assay; format: in vitro ADME, monkey; details: hepatocytes
Description: as §2

[8] = In vitro plasma protein binding; format: in vitro ADME, monkey
Description: (§3) Plasma PK of Compound 1 was characterized in rats and beagle dogs. Toxicokinetic (TK) evaluations of oral Compound 1 were evaluated in repeat-dose studies in rats and dogs. Plasma protein binding was determined in mouse, rat, dog, monkey, and human plasma in vitro. Biotransformation and metabolite profiling of Compound 1 were investigated in vitro using mouse, rat, dog, monkey, and human liver microsomal fractions and hepatocytes and in vivo in rats and dogs. P-glycoprotein (P-gp) and breast cancer resistance protein (BCRP) transporter interaction studies, in vitro experiments evaluating cytochrome P450 (CYP) induction and inhibition by Compound 1, and CYP and glucuronosyltransferase (UGT) substrate specificity studies of Compound 1 were also performed.
(§4) Compound 1 (10 μM) was 97.2 and 97.5% protein bound in monkey and human plasma, respectively.

[9] = Hepatocyte stability assay; format: in vitro ADME, dog; details: hepatocytes
Description: The mean plasma t1/2, z values were approximately 9 hours in rats and 4 hours in dogs. Interspecies scaling based on body weight to predict PK parameters in humans could not be performed because dogs (larger species) cleared Compound 1 faster than rats (smaller species). Therefore, the human PK was projected based on one species (rat). […] This apparent clearance value (CL/F) was used to predict steady-state exposure (AUC and average plasma concentration [Cavg]) in humans for the proposed first-in-human (FIH) starting dose for Study Compound 1-001.
as §2

[10] = Repeat-dose toxicity studies (7-day range-finding, definitive 28-day, 14-day recovery); format: in vivo, dogs
Description: as §1

MET = MET (Homo sapiens, UniProt P08581); experiment: RTK autophosphorylation ELISA, PC-3 cells stimulated with HGF; format: cell-based; design: cell lines (PC-3, HUVEC, and A-172) stimulated with ligands to their respective receptors to induce autophosphorylation (MET, VEGFR2, and AXL); endogenous in cells; host or cells: PC-3; details: MET (PC-3), ligand HGF; read-out: Cellular IC50
MET, sequence (P08581 25-1390): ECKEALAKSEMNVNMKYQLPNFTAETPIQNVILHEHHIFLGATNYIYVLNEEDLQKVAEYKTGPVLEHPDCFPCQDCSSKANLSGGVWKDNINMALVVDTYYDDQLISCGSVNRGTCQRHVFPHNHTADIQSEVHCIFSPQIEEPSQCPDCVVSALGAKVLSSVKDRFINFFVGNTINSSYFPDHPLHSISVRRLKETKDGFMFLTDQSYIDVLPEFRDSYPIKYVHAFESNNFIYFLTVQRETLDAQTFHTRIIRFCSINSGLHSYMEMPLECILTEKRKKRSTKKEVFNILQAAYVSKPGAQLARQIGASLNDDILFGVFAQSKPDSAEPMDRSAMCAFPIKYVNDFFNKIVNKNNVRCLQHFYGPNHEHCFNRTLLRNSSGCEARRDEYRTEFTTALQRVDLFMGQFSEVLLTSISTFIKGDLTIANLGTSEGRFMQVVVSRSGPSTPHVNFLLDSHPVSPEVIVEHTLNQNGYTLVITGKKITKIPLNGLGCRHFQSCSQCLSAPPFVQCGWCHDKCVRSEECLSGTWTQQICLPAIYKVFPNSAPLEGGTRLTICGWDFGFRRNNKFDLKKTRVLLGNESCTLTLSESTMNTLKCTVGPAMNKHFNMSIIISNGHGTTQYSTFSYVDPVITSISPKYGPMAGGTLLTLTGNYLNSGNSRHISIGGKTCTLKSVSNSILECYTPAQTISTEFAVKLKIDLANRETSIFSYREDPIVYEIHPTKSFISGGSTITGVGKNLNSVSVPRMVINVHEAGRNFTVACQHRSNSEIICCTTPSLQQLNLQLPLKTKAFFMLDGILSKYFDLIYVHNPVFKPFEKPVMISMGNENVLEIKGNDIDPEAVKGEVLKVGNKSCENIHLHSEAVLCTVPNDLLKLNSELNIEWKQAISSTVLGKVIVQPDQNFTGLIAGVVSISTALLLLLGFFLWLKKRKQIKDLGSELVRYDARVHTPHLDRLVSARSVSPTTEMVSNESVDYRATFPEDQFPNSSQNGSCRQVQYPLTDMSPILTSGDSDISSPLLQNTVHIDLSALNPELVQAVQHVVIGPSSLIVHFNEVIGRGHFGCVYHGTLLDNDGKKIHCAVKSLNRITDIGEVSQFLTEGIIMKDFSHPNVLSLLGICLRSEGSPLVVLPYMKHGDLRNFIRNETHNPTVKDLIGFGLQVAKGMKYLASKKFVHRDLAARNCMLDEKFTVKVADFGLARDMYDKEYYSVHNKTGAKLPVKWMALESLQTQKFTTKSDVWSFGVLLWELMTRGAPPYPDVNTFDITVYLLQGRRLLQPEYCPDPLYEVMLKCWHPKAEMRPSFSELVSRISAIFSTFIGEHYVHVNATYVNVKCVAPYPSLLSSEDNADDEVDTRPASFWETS
Description: The activity of Compound 1 was evaluated in cell-based assays that assessed the mechanistic effects of the compound in tumor and normal cells. Consistent with the biochemical data, Compound 1 is a potent inhibitor of cellular RTKs as assessed by analysis of receptor autophosphorylation as measured by enzyme-linked immunosorbent assay. Assays were performed using cell lines (PC-3, HUVEC, and A-172) stimulated with ligands to their respective receptors to induce autophosphorylation (MET, VEGFR2, and AXL) or a cell line (293A) transfected with an expression vector encoding the receptor of interest (MER). Inhibition of endogenous phosphorylated MET by Compound 1 in Hs 746T gastric carcinoma cells was also investigated due to the presence of the skip-splice mutation of exon 14 in the MET gene. This MET exon 14 alteration leads to increased MET stability and oncogenic activation, including constitutive MET phosphorylation. Also this mutation is known to occur in 3% of lung adenocarcinoma patients and to be sensitive to MET-targeted therapies (Frampton et al 2015).

[11] = In vitro plasma protein binding; format: in vitro ADME; details: 0.2 and 1 μM
Description: as §3, §4

UGT2B7 = molecular target: T1, UGT2B7 (Homo sapiens, UniProt P16662); experiment: CYP/UGT substrate specificity (recombinant Supersomes, chemical inhibitors in human liver microsomes); format: in vitro ADME
T1 construct: purchased; host or cells: recombinant Supersomes; human liver microsomes
T1 sequence (P16662 24-529): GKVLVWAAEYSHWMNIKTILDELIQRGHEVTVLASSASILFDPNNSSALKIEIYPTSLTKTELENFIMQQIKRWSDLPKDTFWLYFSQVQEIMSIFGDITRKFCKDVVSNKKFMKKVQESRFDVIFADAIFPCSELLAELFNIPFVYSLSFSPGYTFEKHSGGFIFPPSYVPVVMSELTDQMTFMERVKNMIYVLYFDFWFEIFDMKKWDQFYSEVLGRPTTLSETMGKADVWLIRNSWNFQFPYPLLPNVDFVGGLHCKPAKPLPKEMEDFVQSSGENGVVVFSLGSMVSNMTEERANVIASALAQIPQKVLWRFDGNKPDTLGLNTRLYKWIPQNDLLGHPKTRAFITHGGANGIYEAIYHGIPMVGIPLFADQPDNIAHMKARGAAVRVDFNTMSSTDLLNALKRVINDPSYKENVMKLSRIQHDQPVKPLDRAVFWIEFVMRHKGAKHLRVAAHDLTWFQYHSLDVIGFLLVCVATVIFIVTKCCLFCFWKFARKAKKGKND
Description: as §3

CYP2B6 = experiment: as above; format: in vitro ADME
Description: as §3

UGT1A4 = molecular target: T2, UGT1A4 (Homo sapiens, UniProt P22310); experiment: as above; format: in vitro ADME
T2 construct: purchased; host or cells: recombinant Supersomes; human liver microsomes
T2 sequence (P22310 29-534): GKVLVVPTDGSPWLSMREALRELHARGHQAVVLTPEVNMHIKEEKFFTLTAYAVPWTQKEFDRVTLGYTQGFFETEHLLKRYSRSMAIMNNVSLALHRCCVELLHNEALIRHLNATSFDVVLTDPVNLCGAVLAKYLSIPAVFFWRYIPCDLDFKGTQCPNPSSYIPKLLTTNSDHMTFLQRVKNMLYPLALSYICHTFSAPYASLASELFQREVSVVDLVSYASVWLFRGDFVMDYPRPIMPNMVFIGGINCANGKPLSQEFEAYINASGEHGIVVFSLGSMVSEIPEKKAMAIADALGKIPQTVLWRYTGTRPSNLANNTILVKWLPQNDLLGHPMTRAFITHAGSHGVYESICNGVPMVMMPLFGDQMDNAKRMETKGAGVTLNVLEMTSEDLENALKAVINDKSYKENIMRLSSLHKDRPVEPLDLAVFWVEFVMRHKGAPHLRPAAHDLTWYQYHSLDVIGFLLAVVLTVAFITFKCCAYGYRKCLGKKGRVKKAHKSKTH
Description: as §3

UGT1A9 = molecular target: T3, UGT1A9 (Homo sapiens, UniProt O60656); experiment: as above; format: in vitro ADME
T3 construct: purchased; host or cells: recombinant Supersomes; human liver microsomes
T3 sequence (O60656 26-530): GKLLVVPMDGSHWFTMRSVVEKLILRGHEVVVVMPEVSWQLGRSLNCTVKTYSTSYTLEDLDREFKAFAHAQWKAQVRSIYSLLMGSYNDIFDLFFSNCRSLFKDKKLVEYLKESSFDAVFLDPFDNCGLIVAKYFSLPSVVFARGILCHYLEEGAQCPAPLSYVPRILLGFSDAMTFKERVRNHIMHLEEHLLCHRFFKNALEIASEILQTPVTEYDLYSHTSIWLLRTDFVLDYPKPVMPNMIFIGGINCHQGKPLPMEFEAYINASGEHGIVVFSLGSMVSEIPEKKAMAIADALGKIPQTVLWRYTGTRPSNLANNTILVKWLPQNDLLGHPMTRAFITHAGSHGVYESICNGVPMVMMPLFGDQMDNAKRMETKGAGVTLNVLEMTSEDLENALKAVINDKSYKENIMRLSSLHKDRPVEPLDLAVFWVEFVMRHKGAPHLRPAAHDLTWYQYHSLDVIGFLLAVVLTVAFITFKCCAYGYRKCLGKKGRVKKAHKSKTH
Description: as §3

CYP2C9 = experiment: as above; format: in vitro ADME
Description: as §3

CYP2C19 = experiment: as above; format: in vitro ADME
Description: as §3

For `CNC(=O)c1cc2c(Oc3ccc(NC(=O)C4(C(=O)Nc5ccc(F)cc5)CC4)cc3)ccnc2cc1OC` [Compound 1, 1-N′-(4-Fluorophenvl)-1-N-[4-[7-methoxy-6-(methylcarbamovl)quinolin-4-yl]oxyphenyl]cyclopropane-1,1-dicarboxamide], the Papp [1] was 3.83 ×10⁻⁶ cm/s, the “neurobehavioral and respiratory system effects” value [2] was “no adverse neurobehavioral effects or toxicologically significant respiratory system effects” and the CLint [3] was 0.373 mL/min/g liver. The “plasma Cmax relative to hERG channel IC50” value ([4]; 18 mg/kg single dose, Cmax higher than IC50) was “approximately 2 fold”, the Cmax ([4]; dog, plasma, oral, single dose 18 mg/kg, male telemeterized dogs) was ~7 µM and the QTc interval ([4]; male telemeterized dogs, single doses as high as 18 mg/kg) was “no QTc interval prolongation”. For the same compound, the “effect on cardiovascular parameters” value ([4]; single oral doses as high as 18 mg/kg, through 18 hours postdose) was “no significant effect on cardiovascular parameters”, the “mean AUC0-24 of PIB formulation higher than tablet formulation” value ([5]; 20 mg single oral dose) was 49% and the “mean Cmax of PIB formulation higher than tablet formulation” value ([5]; 20 mg single oral dose) was 61%. For the same compound, the Tmax ([5]; beagle, dog, plasma, oral, 20 mg, both formulations (PIB and tablet), read-out: median tmax) was 3 h, the half-life ([5]; beagle, dog, plasma, 20 mg, 20 mg reconstituted oral suspension of PIB formulation) was 4.85 h and the half-life ([5]; beagle, dog, plasma, 20 mg, 20-mg oral tablet) was 5.66 h. The CLint [6] was 0.639 mL/min/g liver, the CLint [7] was 0.533 mL/min/g liver and the protein bound ([8]; 10 μM) was 97.2%. The fraction unbound ([8]; monkey, plasma, 0.2 and 1 μM) was < 0.01, the CLint [9] was 1.08 mL/min/g liver and the “reversibility of adverse findings” value ([10]; 14-day non-treatment recovery period) was “partially or completely reversible”. For the same compound, the Cmax at 28 days ([10]; both sexes, dog, plasma, oral, 18 mg/kg/day, daily dosing for 28 days) was ~7 µM, the ophthalmic findings ([10]; daily for 4 weeks) was “No adverse ophthalmic findings” and the QTc interval ([10]; male and female dogs, daily dosing 28 days, 18 mg/kg/day) was “no QTc interval prolongation”. The cholesterol ([10]; repeat-dose) was “increased cholesterol”, the dose-related clinical signs ([10]; repeat-dose) was “hypoactivity, vomitus, and fecal changes” and the reticulocytes ([10]; repeat-dose) was “transient decreases in reticulocytes”. The “nasal turbinate histologic findings” value ([10]; terminal sacrifice males >6 mg/kg/day, considered non-adverse) was “increased incidences and severities of mixed cell inflammation and osteolysis/osteogenesis”, the IC50 (MET) was 15 nM and the fraction unbound ([11]; dog) was < 0.01. The fraction unbound ([11]; mouse) was < 0.01, the fraction unbound ([11]; rat) was < 0.01 and the substrate of enzyme (UGT2B7) was “not to be a substrate”. The substrate of enzyme (CYP2B6) was “not to be a substrate”, the “role in Compound 1 metabolism” value (UGT1A4) was “may play a minor role” and the substrate of enzyme (UGT1A9) was “not to be a substrate”. For the same compound, the substrate of enzyme (CYP2C9) was “weaker substrate” and the substrate of enzyme (CYP2C19) was “not to be a substrate”.
